Literature values in US9511030B2, “Controlled release particles” (priority 2011, dated 2016).

Compound	water solubility
C=C(C)C(=O)O [Methacrylic acid]	8.9 mass %
CCCC1COC(Cn2cncn2)(c2ccc(Cl)cc2Cl)O1 (centres unmarked) [Propiconazole, 1-[2-(2,4-dichlorophenyl)-4-n-propyl-1,3-dioxolane-2-ylmethyl]-1H-1,2,4-triazole]	110 ppm
